Data on 1 compound can be found in patent publication US12606591B2, “Process for the preparation of drospirenone as a fine powder through a double change of crystalline form” (INDUSTRIALE CHIMICA S.R.L., priority 2021, dated 2026).

The data set in a line: Powder particle size by Helos laser particle size analyzer with Quixel disperser. In kind it is physicochemical. The method, then:
The powders particle size was measured using a Helos laser particle size analyzer equipped with a Quixel disperser (instrument and disperser manufactured and sold by the company Sympatec GmbH of Clausthal-Zellerfeld, Germany), using ultrapure milli-Q water as the dispersing medium. The sample was first dispersed in milli-Q water by adding a few drops of Tween® 80 (polyethylene glycol sorbitan monooleate, sold by Merck) and placed in a sonicating bath for 5 min, then the suspension was added to the dispersing medium loaded into the instrument until an optical density value OD=4-15% is obtained. The measurement (30 s background +30 s measurement) was performed by operating under continuous sonication with the recirculation pump set at 20%.

In the case of `C[C@]12CCC(=O)C=C1[C@@H]1C[C@@H]1[C@H]1[C@@H]3[C@@H]4C[C@@H]4[C@@]4(CCC(=O)O4)[C@@]3(C)CC[C@@H]12` [Drospirenone, 17β-hydroxy-6β, 7β; 15, 16β-dimethylene-3-oxo-17α-pregn-4-ene-21-carboxylic acid γ-lactone], where the note is “Crystalline Form I powder of Example 3 (process of the invention), FIG. 9, cumulative curve”, the “size of all particles” value is on record as “lower than 110 μm”. Under “Crystalline Form I powder of Example 4 (comparative), FIG. 10”, the “size of the largest particles present” value is on record as “over 150 μm”. For the same compound, for the setting “Crystalline Form I powder of Example 4 (comparative, no transformation to Form II), FIG. 10”, the “peak of the sample particles size distribution” value was “about 70 μm”.
